Values of other authors in patent US12436146B2, “Cell-based assay for quantifying the potency and efficacy of cannabinoids and/or terpenoids, and methods of use thereof” (priority 2017, dated 2025).

What was measured:
CB1 [1] = target: T1, CB1 (Homo sapiens, UniProt P21554); settings: read-out: CB1 affinity (Ki)
CB2 [2] = target: T2, CB2 (Homo sapiens, UniProt P34972); settings: read-out: CB2 affinity (Ki)
CB1 [3] = target: T1, CB1
CB2 [4] = target: T2, CB2

T1 sequence (P21554 whole entry): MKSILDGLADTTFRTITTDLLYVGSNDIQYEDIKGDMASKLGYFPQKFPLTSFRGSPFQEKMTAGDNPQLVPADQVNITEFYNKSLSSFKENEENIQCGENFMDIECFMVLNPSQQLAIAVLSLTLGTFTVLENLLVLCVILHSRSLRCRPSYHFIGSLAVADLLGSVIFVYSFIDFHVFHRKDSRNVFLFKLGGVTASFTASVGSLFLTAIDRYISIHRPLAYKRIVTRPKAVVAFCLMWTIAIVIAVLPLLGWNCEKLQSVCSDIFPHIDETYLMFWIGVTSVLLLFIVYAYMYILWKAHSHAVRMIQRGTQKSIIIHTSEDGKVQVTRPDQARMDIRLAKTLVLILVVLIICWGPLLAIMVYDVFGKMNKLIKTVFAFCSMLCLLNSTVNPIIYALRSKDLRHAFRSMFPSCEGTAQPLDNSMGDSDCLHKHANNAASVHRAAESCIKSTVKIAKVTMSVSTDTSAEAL
T2 sequence (P34972 whole entry): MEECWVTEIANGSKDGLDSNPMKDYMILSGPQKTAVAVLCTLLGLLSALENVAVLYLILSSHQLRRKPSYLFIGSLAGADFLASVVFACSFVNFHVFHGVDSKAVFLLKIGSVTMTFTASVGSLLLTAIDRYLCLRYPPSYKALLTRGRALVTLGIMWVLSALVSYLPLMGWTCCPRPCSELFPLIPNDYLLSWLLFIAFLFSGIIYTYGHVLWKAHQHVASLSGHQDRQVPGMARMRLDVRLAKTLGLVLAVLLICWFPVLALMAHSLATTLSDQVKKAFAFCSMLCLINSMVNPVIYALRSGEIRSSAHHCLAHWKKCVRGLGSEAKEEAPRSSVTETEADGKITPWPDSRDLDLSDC

For `CCCCCn1c(C)c(C(=O)c2cccc3ccccc23)c2ccccc21` [JWH-007], the Ki (CB1 [1]) is given as 9 nM, the Ki (CB2 [2]) is given as 2.94 nM and the “Efficacy towards CB1” value (CB1 [3]) is given as “Agonist”. The “Efficacy towards CB2” value (CB2 [4]) was “Agonist”.

For `CCCCC/C=C\C/C=C\C/C=C\C/C=C\CCCCOC(CO)CO` [2-Arachidonyl glyceryl ether], the Ki (CB1 [1]) is given as 21 nM, the Ki (CB2 [2]) is given as 480 nM and the “Efficacy towards CB1” value (CB1 [3]) is given as “Full agonist”. The “Efficacy towards CB2” value (CB2 [4]) was “Full agonist”.

In the case of `O=C(c1cccc2ccccc12)c1cn(CCCCCF)c2cc([N+](=O)[O-])ccc12` [AM-1235], the Ki (CB1 [1]) is listed as 1.5 nM, the Ki (CB2 [2]) is listed as 20.4 nM and the “Efficacy towards CB1” value (CB1 [3]) is listed as “Agonist”. The “Efficacy towards CB2” value (CB2 [4]) was “Agonist”.

For `CCCCCn1cc(C(=O)c2cccc3ccccc23)c2ccccc21` [JWH-018], the Ki (CB1 [1]) is listed as 9 ± 5 nM, the Ki (CB2 [2]) is listed as 2.94 ± 2.65 nM and the “Efficacy towards CB1” value (CB1 [3]) is listed as “Full agonist”. The “Efficacy towards CB2” value (CB2 [4]) was “Full agonist”.

For `N#CCCCCn1cc(C(=O)c2cccc3ccccc23)c2ccccc21` [AM-2232], the Ki (CB1 [1]) is given as 0.28 nM, the Ki (CB2 [2]) is given as 1.48 nM and the “Efficacy towards CB1” value (CB1 [3]) is given as “Agonist”. The “Efficacy towards CB2” value (CB2 [4]) was “Agonist”.

For `CCCCC/C=C\C/C=C\C/C=C\C/C=C\CCCC(=O)NCCc1ccc(O)c(O)c1` [N-Arachidonoyl dopamine], the “Efficacy towards CB1” value (CB1 [3]) is listed as “Agonist”.

In the case of `CCCCC/C=C\C/C=C\C/C=C\C/C=C\CCCC(=O)OC(CO)CO` [2-Arachidonoylglycerol], the “Efficacy towards CB1” value (CB1 [3]) is given as “Full agonist”.

In the case of `COc1ccc(/C=C/c2cc(OC)cc(=O)o2)cc1` [Yangonin], the Ki (CB2 [2]) is given as > 10000 nM.

In the case of `Cc1c(C(=O)c2cccc3ccccc23)c2ccc([N+](=O)[O-])cc2n1CC1CCCCN1C` (stereo not shown) [AM-1221], the Ki (CB1 [1]) is given as 52.3 nM, the Ki (CB2 [2]) is given as 0.28 nM and the “Efficacy towards CB1” value (CB1 [3]) is given as “Agonist”. The “Efficacy towards CB2” value (CB2 [4]) was “Agonist”.

In the case of `O=C(O[C@@H]1Cc2c(O)cc(O)cc2O[C@@H]1c1cc(O)c(O)c(O)c1)c1cc(O)c(O)c(O)c1` [EGCG], the Ki (CB1 [1]) is given as 33600 nM, the Ki (CB2 [2]) is given as > 50000 nM and the “Efficacy towards CB1” value (CB1 [3]) is given as “Agonist”.

In the case of `CCCCCn1cc(C(=O)C2C(C)(C)C2(C)C)c2ccccc21` [UR-144], the Ki (CB1 [1]) is given as 150 nM, the Ki (CB2 [2]) is given as 1.8 nM and the “Efficacy towards CB1” value (CB1 [3]) is given as “Full agonist”. The “Efficacy towards CB2” value (CB2 [4]) was “Full agonist”.
